Measured values as given in ChEMBL document CHEMBL6114942, “(E)-3-(3-([1,1'-Biphenyl]-4-yl)-1-phenyl-1H-pyrazol-4-yl)-1-phenylprop-2-en-1-ones inducing reactive oxygen species generation through glutathione depletion” (Bioorg Med Chem Lett, 2025).
Calls of active or inactive are those of the source. The rule behind the calls is not given here.

Columns and labels:
MIA PaCa-2 [1] = assay: Induction of reactive oxygen species generation in human MIA PaCa-2 cells assessed as ROS level at 50 uM measured after 12 hrs by DCF-DA staining based flow cytometry (reference value: 461.5 +/- 57.3); type: functional
MIA PaCa-2 [2] = assay: Induction of GSH depletion in human MIA PaCa-2 assessed as cell population with low GSH level at 50 uM measured after 18 hrs by VB-48/propidium iodide staining based flow cytometry (reference value: 5%); type: functional
[3] = Induction of GSH depletion in human Primary pancreatic epithelial cells assessed as cell population with low GSH level at 50 uM measured after 18 hrs by VB-48/propidium iodide staining based flow cytometry (reference value: 7%); type: toxicity
MIA PaCa-2 [4] = assay: Induction of apoptosis in human MIA PaCa-2 cells assessed as late apoptotic cells at 100 uM measured after 24 hrs by Annexin-V-FITC/propidium iodide staining based flow cytometry (reference value: 4%); type: functional
MIA PaCa-2 [5] = assay: Induction of apoptosis in human MIA PaCa-2 cells assessed as viable cells at 100 uM measured after 24 hrs by Annexin-V-FITC/propidium iodide staining based flow cytometry (reference value: 74%); type: functional; conditions: read-out: Activity
MIA PaCa-2 [6] = assay: Induction of GSH depletion in human MIA PaCa-2 assessed as cell population with high GSH level at 50 uM measured after 18 hrs by VB-48/propidium iodide staining based flow cytometry (reference value: 95%); type: functional
MIA PaCa-2 [7] = assay: Inhibition of GST activity in human MIA PaCa-2 cells at 50 uM using CDNB as substrate measured after 6 hrs by spectrophotometric method; type: cell-based
MIA PaCa-2 [8] = assay: Induction of apoptosis in human MIA PaCa-2 cells assessed as necrotic cells at 50 uM measured after 24 hrs by Annexin-V-FITC/propidium iodide staining based flow cytometry (reference value: 9%); type: functional
MIA PaCa-2 [9] = assay: Induction of apoptosis in human MIA PaCa-2 cells assessed as viable cells at 50 uM measured after 24 hrs by Annexin-V-FITC/propidium iodide staining based flow cytometry (reference value: 74%); type: functional; conditions: read-out: Activity
[10] = Induction of GSH depletion in human Primary pancreatic epithelial cells assessed as cell population with high GSH level at 50 uM measured after 18 hrs by VB-48/propidium iodide staining based flow cytometry (reference value: 93%); type: toxicity
MIA PaCa-2 [11] = assay: Induction of apoptosis in human MIA PaCa-2 cells assessed as necrotic cells at 100 uM measured after 24 hrs by Annexin-V-FITC/propidium iodide staining based flow cytometry (reference value: 9%); type: functional
MIA PaCa-2 [12] = assay: Induction of apoptosis in human MIA PaCa-2 cells assessed as early apoptotic cells at 50 uM measured after 24 hrs by Annexin-V-FITC/propidium iodide staining based flow cytometry (reference value: 13%); type: functional
MIA PaCa-2 [13] = assay: Induction of reactive oxygen species generation in human MIA PaCa-2 cells at 50 uM measured after 12 hrs by DCF-DA staining based phase-contrast fluorescence microscopy; type: functional, cell-based
MIA PaCa-2 [14] = assay: Induction of apoptosis in human MIA PaCa-2 cells assessed as viable cells at 50 uM measured after 48 hrs by Annexin-V-FITC/propidium iodide staining based flow cytometry (reference value: 71%); type: functional; conditions: read-out: Activity
MIA PaCa-2 [15] = assay: Induction of apoptosis in human MIA PaCa-2 cells assessed as necrotic cells at 100 uM measured after 48 hrs by Annexin-V-FITC/propidium iodide staining based flow cytometry (reference value: 11%); type: functional
MIA PaCa-2 [16] = assay: Induction of apoptosis in human MIA PaCa-2 cells assessed as late apoptotic cells at 50 uM measured after 48 hrs by Annexin-V-FITC/propidium iodide staining based flow cytometry (reference value: 3%); type: functional
MIA PaCa-2 [17] = assay: Induction of apoptosis in human MIA PaCa-2 cells assessed as viable cells at 100 uM measured after 48 hrs by Annexin-V-FITC/propidium iodide staining based flow cytometry (reference value: 71%); type: functional; conditions: read-out: Activity
MIA PaCa-2 [18] = assay: Induction of apoptosis in human MIA PaCa-2 cells assessed as late apoptotic cells at 100 uM measured after 48 hrs by Annexin-V-FITC/propidium iodide staining based flow cytometry (reference value: 3%); type: functional
MIA PaCa-2 [19] = assay: Induction of apoptosis in human MIA PaCa-2 cells assessed as necrotic cells at 50 uM measured after 48 hrs by Annexin-V-FITC/propidium iodide staining based flow cytometry (reference value: 11%); type: functional
MIA PaCa-2 [20] = assay: Induction of apoptosis in human MIA PaCa-2 cells assessed as early apoptotic cells at 100 uM measured after 48 hrs by Annexin-V-FITC/propidium iodide staining based flow cytometry (reference value: 15%); type: functional
MIA PaCa-2 [21] = assay: Induction of apoptosis in human MIA PaCa-2 cells assessed as early apoptotic cells at 50 uM measured after 48 hrs by Annexin-V-FITC/propidium iodide staining based flow cytometry (reference value: 15%); type: functional
MIA PaCa-2 [22] = assay: Induction of apoptosis in human MIA PaCa-2 cells assessed as late apoptotic cells at 50 uM measured after 24 hrs by Annexin-V-FITC/propidium iodide staining based flow cytometry (reference value: 4%); type: functional
MIA PaCa-2 [23] = assay: Induction of apoptosis in human MIA PaCa-2 cells assessed as early apoptotic cells at 100 uM measured after 24 hrs by Annexin-V-FITC/propidium iodide staining based flow cytometry (reference value: 13%); type: functional
MIA PaCa-2 [24] = assay: Induction of apoptosis in human MIA PaCa-2 cells measured after 24 to 48 hrs by Annexin-V-FITC/propidium iodide staining based flow cytometry; type: functional, cell-based; conditions: dose 50-100 µM, time 24-48 hrs

Q: With `O=C(/C=C/c1cn(-c2ccccc2)nc1-c1ccc(-c2ccccc2)cc1)c1cc(F)ccc1O` as the compound, how does the Activity (MIA PaCa-2 [1]) read?
A: 540

Q: For `COc1cccc(C(=O)/C=C/c2cn(-c3ccc(F)cc3)nc2-c2ccc(-c3ccccc3)cc2)c1`, which Activity (MIA PaCa-2 [1]) is on record?
A: 675

Q: With `COc1ccc(-n2cc(/C=C/C(=O)c3cccc(OC)c3)c(-c3ccc(-c4ccccc4)cc3)n2)cc1` as the compound, how does the Activity (MIA PaCa-2 [1]) read?
A: 720.5

Q: With `COc1ccccc1C(=O)/C=C/c1cn(-c2ccccc2)nc1-c1ccc(-c2ccccc2)cc1` as the compound, how does the Activity (MIA PaCa-2 [1]) read?
A: 619.5

Q: Which Activity (MIA PaCa-2 [1]) does the source give for `COc1cccc(O)c1C(=O)/C=C/c1cn(-c2ccccc2)nc1-c1ccc(-c2ccccc2)cc1` here?
A: 580.5

Q: Which Activity (MIA PaCa-2 [1]) does the source give for `O=C(/C=C/c1cn(-c2ccccc2)nc1-c1ccc(-c2ccccc2)cc1)c1cc(Cl)ccc1O` here?
A: 661

Q: With `O=C(/C=C/c1cn(-c2ccccc2)nc1-c1ccc(-c2ccccc2)cc1)c1ccc(O)cc1` as the compound, how does the Activity (MIA PaCa-2 [1]) read?
A: 639

Q: Which Activity (MIA PaCa-2 [1]) does the source give for `CC1=CC(=O)c2ccccc2C1=O` [MENADIONE] here?
A: 1160.5

Q: Which Activity (MIA PaCa-2 [2]) does the source give for `COc1ccc(C(=O)/C=C/c2cn(-c3ccc(OC)cc3)nc2-c2ccc(-c3ccccc3)cc2)cc1` here?
A: 44%

Q: What about the Activity [3] of the same compound?
A: 14%

Q: What about the Activity (MIA PaCa-2 [4]) of the same compound?
A: 6%

Q: What about the viability at 100 µM (MIA PaCa-2 [5]) of the same compound?
A: 30%

Q: What about the Activity (MIA PaCa-2 [6]) of the same compound?
A: 55%

Q: What about the inhibition (MIA PaCa-2 [7]) of the same compound?
A: Active

Q: And the Activity (MIA PaCa-2 [8])?
A: 6%

Q: And the viability at 50 µM (MIA PaCa-2 [9])?
A: 49%

Q: What about the Activity [10] of the same compound?
A: 86%

Q: What about the Activity (MIA PaCa-2 [11]) of the same compound?
A: 3%

Q: What about the Activity (MIA PaCa-2 [12]) of the same compound?
A: 39%

Q: What about the Activity (MIA PaCa-2 [13]) of the same compound?
A: Active; Most Effective Among The Tested Compounds

Q: And the viability at 50 µM (MIA PaCa-2 [14])?
A: 22%

Q: What about the Activity (MIA PaCa-2 [15]) of the same compound?
A: 4%

Q: What about the Activity (MIA PaCa-2 [16]) of the same compound?
A: 8%

Q: And the viability at 100 µM (MIA PaCa-2 [17])?
A: 11%

Q: What about the Activity (MIA PaCa-2 [1]) of the same compound?
A: 799.5

Q: What about the Activity (MIA PaCa-2 [18]) of the same compound?
A: 11%

Q: And the Activity (MIA PaCa-2 [19])?
A: 5%

Q: And the Activity (MIA PaCa-2 [20])?
A: 74%

Q: And the Activity (MIA PaCa-2 [21])?
A: 65%

Q: And the Activity (MIA PaCa-2 [22])?
A: 7%

Q: And the Activity (MIA PaCa-2 [23])?
A: 60%

Q: And the Activity (MIA PaCa-2 [24])?
A: Dose-dependent-effect

Q: Which Activity (MIA PaCa-2 [1]) does the source give for `COc1cccc(C(=O)/C=C/c2cn(-c3ccccc3)nc2-c2ccc(-c3ccccc3)cc2)c1` here?
A: 680

Q: For `COc1ccc(-n2cc(/C=C/C(=O)c3ccccc3OC)c(-c3ccc(-c4ccccc4)cc3)n2)cc1`, which Activity (MIA PaCa-2 [1]) is on record?
A: 535.5

Q: Which Activity (MIA PaCa-2 [1]) does the source give for `COc1ccc(C(=O)/C=C/c2cn(-c3ccc(F)cc3)nc2-c2ccc(-c3ccccc3)cc2)cc1OC` here?
A: 534.5

Q: Which Activity (MIA PaCa-2 [1]) does the source give for `COc1ccc(C(=O)/C=C/c2cn(-c3ccc(F)cc3)nc2-c2ccc(-c3ccccc3)cc2)cc1` here?
A: 529.5
